According to patent publication US20120238488A1, “COMPOUNDS AND METHODS FOR TREATING NEOPLASIA” (priority 2009, published 2012):
Like-named read-outs stand apart in the source and are kept apart here.

Experiments:
HCT116 (Colon) = test: SRB assay, HCT116; type: cell-based; settings: Homo sapiens; for CC50: HCT-116, 48 h, read-out: LC50; for GI50 / IC (TGI): HCT-116, HCT116, SRB, 48 h
Description: (§1) SRB assays were performed according to standard National Cancer Institute Guidelines. Briefly, human tumor cells from different cancer panels were seeded into 96 well plates in 100 μL (plating densities ranging from 5-40,000 cells/well depending on the doubling time of individual cell lines) in serum-containing media for twenty-four hours prior to the addition of the compounds to be assayed. After 24 hours, one plate of each cell line was fixed in situ with trichloroacetic acid (TCA). The fixed slides were used to determine the cell population for each cell line at the time of drug addition (Tz). Each compound to be tested was solubilized in DMSO and the desired concentration was then added to the medium and diluted serially 1:10 to provide a total of five or ten drug concentrations plus control (in a final volume of 200 μL). The starting dose before any dilution was 100 uM for all compounds.
(§2) Following drug addition, each culture was incubated for forty-eight hours. The assay was terminated with the addition of cold TCA. The supernatant was discarded, and the plates were washed with tap water and air dried. Sulforhodamine B (SRB) solution was then added to each well. After staining, the bound stain was solubilized and the absorbance was read on an automated plate reader at a wavelength of 515 nm.
(§3) Using the absorbance measurements [time zero, (Tz), control growth, (C), and test growth in the presence of drug at the ten concentration levels (Ti)], the percentage growth was calculated at each of the drug concentrations levels. Percentage growth inhibition was calculated as:
(§4) [(Ti−Tz)/(C−Tz)]×100 for concentrations for which Ti>/=Tz
(§5) [(Ti−Tz)/Tz]×100 for concentrations for which Ti<Tz.
(§6) Three dose response parameters were calculated for each experimental agent. Growth inhibition of 50% (GI50) was calculated from [(Ti−Tz)/(C−Tz)]×100=50, which was the drug concentration resulting in a 50% reduction in the net protein increase (as measured by SRB staining) in control cells during the drug. The drug concentration resulting in total growth inhibition (TGI) was calculated from Ti=Tz. The LC50 (concentration of drug resulting in a 50% reduction in the measured protein at the end of the drug treatment as compared to that at the beginning) indicating a net loss of cells following treatment was calculated from [(Ti−Tz)/Tz]×100=−50.
(§7) Values were calculated for each of these three parameters when the level of activity was reached; however, if the effect was not reached or was exceeded, the value for that parameter was expressed as greater or less than the maximum or minimum concentration tested.
(§8) Table 4 summarizes results characterizing the effects of compound Nos. 120, 12, 61, 1, and 56 on GI50, which measures the cell growth inhibitory power of the compound, TGI, which measures cytostatic effect (TGI) and LC50, which signifies cytotoxic effect. Each of these parameters in Table 4 was calculated in a sulforhodamine B (SRB) assay, which provides a colorimetric measure of a compound's anti-cancer activity. SRB assays were performed with compounds of the invention in 22 different cell lines (shaded in light gray in Table 4), which represent nine different tumor panels (lung, melanoma, ovary, prostate, CNS, breast, pancreas colon and renal). Ouabain and digoxin were used as controls. Paclitaxel was added as a non-Na^+K^+-ATPase inhibitor control.

SF268 (CNS) = test: SRB assay, SF268; type: cell-based; settings: Homo sapiens; for CC50: SF-268, 48 h, read-out: LC50; for GI50 / IC (TGI): SF-268, SF268, SRB, 48 h; for GI50: read-out: GI50; for IC (TGI): read-out: TGI
Description: as §1, §2, §3, §4, §5, §6, §7, §8

DU145 (Prostate) = test: SRB assay, DU145; type: cell-based, human; settings: for TGI / GI50: DU145, SRB, 48 h; for CC50 / GI50: Homo sapiens; for CC50: DU-145, 48 h, read-out: LC50; for GI50: DU-145
Description: as §1, §2, §3, §4, §5, §6, §7, §8

[1] = tested on: Na+/K+-ATPase (Adenosine 5′-Triphosphatase isolated from porcine cerebral cortex); test: Na+/K+-ATPase inhibitory activity, colorimetric Adenosine 5'-Triphosphatase Enzymatic Assay; type: biochemical
Description: The inhibitory effect of a compound of the invention on ATPase activity was assessed in vitro using the colorimetric Adenosine 5′-Triphosphatase Enzymatic Assay of Sigma (St. Louis, Mo.) according to the manufacturer's instructions. This assay utilizes Adenosine 5′-Triphosphatase isolated from porcine cerebral cortex. Each reaction was performed in a final volume of 250 μl using 0.5 units/ml enzyme in the presence of different inhibitors. […] IC50 values were determined using the Origin® program software (OriginLab, Northampton, Mass.).

SKMEL28 (Melanoma) = test: SRB assay, SKMEL28; type: cell-based, human; settings: for CC50 / GI50: Homo sapiens; for CC50: SK-MEL-28, 48 h, read-out: LC50; for GI50: SK-MEL-28; for GI50 / TGI: SKMEL28, SRB, 48 h
Description: as §1, §2, §3, §4, §5, §6, §7, §8

A549 (Lung) = test: SRB assay, A549; type: cell-based, human; settings: for TGI / GI50: A549, SRB, 48 h; for CC50 / GI50: Homo sapiens; for CC50: A549, 48 h, read-out: LC50
Description: as §1, §2, §3, §4, §5, §6, §7, §8

OVCAR3 (Ovary) = test: SRB assay, OVCAR3; type: cell-based, human; settings: for CC50 / GI50: Homo sapiens; for CC50: OVCAR-3, 48 h, read-out: LC50; for GI50: OVCAR-3; for GI50 / TGI: OVCAR3, SRB, 48 h
Description: as §1, §2, §3, §4, §5, §6, §7, §8

MB435 (Melanoma) = test: SRB assay, MB435; type: cell-based, human; settings: 48 h; for CC50 / GI50: Homo sapiens; for CC50: read-out: LC50; for GI50 / TGI: MB435, SRB
Description: as §1, §2, §3, §4, §5, §6, §7, §8

ADRRES (Ovary) = test: SRB assay, ADRRES (multidrug resistant NCI-ADR-RES); type: cell-based, human; settings: for TGI / GI50: ADRRES; for TGI / GI50 / anti-tumor action in multidrug resistant cell line NCI-ADR-RES: SRB; for TGI / CC50 / GI50: 48 h; for CC50 / GI50: Homo sapiens, NCI/ADR-RES; for CC50: read-out: LC50; for anti-tumor action in multidrug resistant cell line NCI-ADR-RES: cells express high levels of MDR1 and P-glycoprotein
Description: NCI-ADR-RES cells have been classified as ovarian cancer cells by the National Cancer Institute.
as §1, §2, §3, §4, §5, §6, §7, §8
Table 4 also presents results with Compound Nos. 120, 12, 61, 1, and 56 in a well characterized drug resistant cell line, NCI-ADR-RES, that expresses high levels of MDR1 and P-glycoprotein.

PCJ (Prostate) = test: SRB assay, PCJ; type: cell-based; settings: Homo sapiens, 48 h; for CC50: read-out: LC50; for GI50 / IC (TGI): PCJ, SRB
Description: as §1, §2, §3, §4, §5, §6, §7, §8

ERVK (Lung) = test: SRB assay, ERVK; type: cell-based, human; settings: 48 h; for TGI / GI50: ERVK, SRB; for CC50 / GI50: Homo sapiens; for CC50: read-out: LC50
Description: as §1, §2, §3, §4, §5, §6, §7, §8

OVCAR5 (Ovary) = test: SRB assay, OVCAR5; type: cell-based, human; settings: for CC50 / GI50: Homo sapiens; for CC50: OVCAR-5, 48 h, read-out: LC50; for GI50: OVCAR-5; for GI50 / TGI: OVCAR5, SRB, 48 h
Description: as §1, §2, §3, §4, §5, §6, §7, §8

CAKJ1 (Renal) = test: SRB assay, CAKJ1; type: cell-based, human; settings: 48 h; for TGI / GI50: CAKJ1, SRB; for CC50 / GI50: Homo sapiens; for CC50: read-out: LC50
Description: as §1, §2, §3, §4, §5, §6, §7, §8

C[C@]12CCC(=NOCCN)CC1CCC1C2CC[C@]2(C)C(=O)CCC12 (stereo partly drawn) [Compound 1, (10S,13S)-3-(2-aminoethoxyimino)-10,13-dimethyltetradecahydro-1H-cyclopenta[a]phenanthren-17(2H)-one] showed a CC50 (HCT116 (Colon)) of 8100 nM, a GI50 (HCT116 (Colon)) of 364 nM and an IC (TGI) (HCT116 (Colon)) of 1310 nM. For the same compound, the CC50 (SF268 (CNS)) was 908 nM, the GI50 (SF268 (CNS)) was 385 nM and the IC (TGI) (SF268 (CNS)) was 647 nM. It also gave a TGI (DU145 (Prostate)) of 588.2 nM, a CC50 (DU145 (Prostate)) of 844 nM and a GI50 (DU145 (Prostate)) of 332 nM. For the same compound, the “Na+K+ ATPase inhibitory activity (in words)” value [1] was “very potent Na+K+ ATPase inhibitors”, the IC50 ([1]; read-out: Na+K+ ATPase inhibitory activity IC50) was 124 nM and the CC50 (SKMEL28 (Melanoma)) was 7540 nM. It also gave a GI50 (SKMEL28 (Melanoma)) of 517 nM, a TGI (SKMEL28 (Melanoma)) of 928.4 nM and a TGI (A549 (Lung)) of 582.5 nM. The CC50 (A549 (Lung)) was 850 nM, the GI50 (A549 (Lung)) was 315 nM and the CC50 (OVCAR3 (Ovary)) was 984 nM. It also gave a GI50 (OVCAR3 (Ovary)) of 291 nM, a TGI (OVCAR3 (Ovary)) of 637.5 nM and a CC50 (MB435 (Melanoma)) of 6380 nM. For the same compound, the GI50 (MB435 (Melanoma)) was 598 nM, the TGI (MB435 (Melanoma)) was 1399.5 nM and the TGI (ADRRES (Ovary)) was 647.9 nM. For the same compound, the CC50 (ADRRES (Ovary)) was 944 nM, the GI50 (ADRRES (Ovary)) was 321 nM and the “anti-tumor action in multidrug resistant cell line NCI-ADR-RES” value (ADRRES (Ovary)) was “potent anti-tumor action”. It also gave a CC50 (PCJ (Prostate)) of 897 nM, a GI50 (PCJ (Prostate)) of 253 nM and an IC (TGI) (PCJ (Prostate)) of 575 nM. For the same compound, the TGI (ERVK (Lung)) was 640.6 nM, the CC50 (ERVK (Lung)) was 943 nM and the GI50 (ERVK (Lung)) was 338 nM. It also gave a CC50 (OVCAR5 (Ovary)) of 7320 nM, a GI50 (OVCAR5 (Ovary)) of 834 nM and a TGI (OVCAR5 (Ovary)) of 3763 nM. It also gave a TGI (CAKJ1 (Renal)) of 643 nM, a CC50 (CAKJ1 (Renal)) of 948 nM and a GI50 (CAKJ1 (Renal)) of 338 nM.
For C[C@]12CCC(=NOC3CCNC3)C=C1CCC1C2CC[C@]2(C)C(=O)CCC12 (stereo partly drawn) [Compound 61, (10R,13S)-10,13-dimethyl-3-(pyrrolidin-3-yloxyimino)-2,3,7,8,9,10,11,12,13,14,15,16-dodecahydro-1H-cyclopenta[a]phenanthren-17(6H)-one], the CC50 (HCT116 (Colon)) was 9260 nM, the GI50 (HCT116 (Colon)) was 286 nM and the IC (TGI) (HCT116 (Colon)) was 1310 nM. For the same compound, the CC50 (SF268 (CNS)) was 8030 nM, the GI50 (SF268 (CNS)) was 567 nM and the IC (TGI) (SF268 (CNS)) was 3020 nM. The TGI (DU145 (Prostate)) was 626.2 nM, the CC50 (DU145 (Prostate)) was 895 nM and the GI50 (DU145 (Prostate)) was 357 nM. For the same compound, the “Na+K+ ATPase inhibitory activity (in words)” value [1] was “strong Na+K+ ATPase inhibitory activities”, the IC50 ([1]; 0.5 units/ml enzyme, five concentrations 10^−5 to 10^−9M, read-out: Na+ K+ Inhibitory Activity (IC50)) was 496 nM and the CC50 (SKMEL28 (Melanoma)) was 12300 nM. The GI50 (SKMEL28 (Melanoma)) was 993 nM, the TGI (SKMEL28 (Melanoma)) was 6623 nM and the TGI (A549 (Lung)) was 514.9 nM. The CC50 (A549 (Lung)) was 823 nM, the GI50 (A549 (Lung)) was 207 nM and the CC50 (OVCAR3 (Ovary)) was 6120 nM. The GI50 (OVCAR3 (Ovary)) was 355 nM, the TGI (OVCAR3 (Ovary)) was 800.4 nM and the CC50 (MB435 (Melanoma)) was 8200 nM. For the same compound, the GI50 (MB435 (Melanoma)) was 649 nM, the TGI (MB435 (Melanoma)) was 3378.4 nM and the TGI (ADRRES (Ovary)) was 1015.6 nM. The CC50 (ADRRES (Ovary)) was 6070 nM, the GI50 (ADRRES (Ovary)) was 564 nM and the “anti-tumor action in multidrug resistant cell line NCI-ADR-RES” value (ADRRES (Ovary)) was “potent anti-tumor action”. For the same compound, the CC50 (PCJ (Prostate)) was 7420 nM, the GI50 (PCJ (Prostate)) was 281 nM and the IC (TGI) (PCJ (Prostate)) was 1810 nM. The TGI (ERVK (Lung)) was 2471 nM, the CC50 (ERVK (Lung)) was 6840 nM and the GI50 (ERVK (Lung)) was 493 nM. For the same compound, the CC50 (OVCAR5 (Ovary)) was 9060 nM, the GI50 (OVCAR5 (Ovary)) was 3850 nM and the TGI (OVCAR5 (Ovary)) was 6454.9 nM. For the same compound, the TGI (CAKJ1 (Renal)) was 1251.6 nM, the CC50 (CAKJ1 (Renal)) was 6650 nM and the GI50 (CAKJ1 (Renal)) was 268 nM.
